# Read-outs that look alike come from different tables or passages of the source.
# Experiments:
# alkaline phosphatase [1] = conditions: TBQ, 37° C., 25 minutes
# Protocol: The following reagents were used for this: • 0.1M aminomethylpropanol buffer, pH 9.5 (AMP Buffer), • CDP-Star® (CDP*, Life Technologies): 6.2 mg/mL (12.5 mM) in AMP Buffer, • ADP-Star® (ADP*, Life Technologies): 1 mg/mL (2.2 mM) in 0.1M AMP Buffer, • ADP*-EE Oxidation mixture: 1 mg/mL (2.3 mM) in 0.1M AMP Buffer, • TBQ: 10× Sapphire II™ chemiluminescence enhancer (Life Technologies), and • Alkaline Phosphatase stock (AP): 8 ng/mL (from 17.4 mg/mL concentrate).
# 10 μL ADP* or ADP*-EE Oxidation mixture (0.22 or 0.23 mM, respectively), 10 μL TBQ, 80 μL AMP Buffer and 10 μL AP were combined and the luminescence from the mixture was measured continuously at 37° C. for 25 minutes. 1.6 μL CDP* (0.2 mM), 10 μL TBQ, 80 μL AMP Buffer and 10 μL AP were combined and the luminescence from the mixture was measured continuously at 37° C. for 25 minutes.
# [2] = Thermal stability of aqueous solutions of reagents; assay type: physicochemical
# Text: The thermal stabilities of aqueous solutions AMPPD®, AMPPD enol ether phosphate (AMPPD-EE) and AMPPD-EE in the presence of Na2MoO4 were examined.
# alkaline phosphatase [3] = conditions: in the presence of Sapphire II enhancer
# Text: Benchmarking experiments compared the light emission (in RLUs) and signal to noise (S:N) of in situ ADP-Star with control dioxetanes CSPD®, ADP-Star®, and CDP-Star®.
# alkaline phosphatase [4] = tested on: alkaline phosphatase
# Text: Before developing assay conditions with Method B in situ dioxetane generation, we investigated whether the reagents from the oxidation system adversely affected alkaline phosphatase activity. […] Any quenching effects from a singlet oxygen generation/reaction system may be enzyme-specific, and would have to be evaluated for any enzyme/detection substrate pair.
# [5] = cited from earlier work
structure (smiles),measurement,setting,value
COC(=C1C2CC3CC(C2)CC1C3)c1ccc(Cl)c(OP(=O)([O-])[O-])c1.[Na+].[Na+] [ADP-Star enol ether phosphate],light emission compared with CDP-Star dioxetane control,alkaline phosphatase [1],higher light emission
COC(=C1C2CC3CC(C2)CC1C3)c1cccc(OP(=O)([O-])[O-])c1.[Na+].[Na+] [AMPPD-EE],Stability/Storage Conditions (loss),"[2]; 1 month, 55° C.","Minimal loss in 1 month, 55 °C"
same,thermal decomposition,"[2]; aqueous solution, 40° C. over 4+ months",virtually no thermal decomposition
same,thermal decomposition,"[2]; aqueous solution, 55° C. over 5+ months",minimal thermal decomposition
same,thermal decomposition,[2]; in the presence of Na2MoO4 at 40° C.,no thermal decomposition
"COC1(c2cccc(OP(=O)(O)O)c2)OOC12C1CC3CC(C1)CC2C3 (stereo not drawn) [AMPPD®, reference compound]",thermal half-life,"[2]; aqueous solution, 40° C.",~40 days
same,thermal half-life,"[2]; aqueous solution, 55° C.",~10 days
COC1(c2cccc(OP(=O)(O)O)c2)OOC12C1CC3CC2CC(Cl)(C3)C1 (stereo not drawn) [CSPD®],time reaching glow (maximum light emission),alkaline phosphatase [3],30 min
OO [hydrogen peroxide],effect on alkaline phosphatase activity,alkaline phosphatase [4],does not affect alkaline phosphatase activity
same,Stability/Storage Conditions,"[5]; 35% soln, 1 yr, 25° C.",">99.3% in 1 yr, 25° C.;"
same,Stability/Storage Conditions,"[5]; 35% soln, 24 hr, 100° C.","≥96.0% in 24 hr, 100 °C"
[Na+].[Na+].[O]=[Mo](=[O])([O-])[O-] [sodium molybdate],effect on alkaline phosphatase activity,"alkaline phosphatase [4]; AMPPD substrate, TBQ enhancer, 37° C., 30 minutes",significantly quenches alkaline phosphatase activity
same,light reduction (quenching of alkaline phosphatase activity),"alkaline phosphatase [4]; AMPPD substrate, various amounts of Na2MoO4 stock, 37° C.",up to 85%
same,alkaline phosphatase activity on lowering concentration,alkaline phosphatase [4]; sodium molybdate <1 mM,restores most of the alkaline phosphatase activity
same,Stability/Storage Conditions,[5]; solid,“Stable under ordinary conditions of use &
